Measured values taken from US20250154088A1, “PRODUCT 1,3-BUTYLENE GLYCOL” (KH Neochem Co., Ltd., priority 2022, published 2025).

Tests used:
[1] = Basic coloration test; assay type: physicochemical; conditions: with water and potassium hydroxide, heat treatment at 90° C. for one hour, cooled to room temperature; spectral colorimeter
Excerpt: The product 1, 3-butylene glycol in the present embodiment has an advantage of not easily coloring under a basic condition. Coloration under a basic condition can be evaluated by a method described in examples to be described below (basic coloration test). The color saturation (b*) of the CIE color space (JIS Z 8729) when the product 1, 3-butylene glycol of the present embodiment has been evaluated by the method is not particularly limited; however, for example, the average value of three times of measurement is preferably 4.0 or less, more preferably 3.8 or less and particularly preferably 3.5 or less.
The product 1, 3-butylene glycols obtained in Examples 1 to 3 and Comparative Example 1 were evaluated for coloration under a basic condition according to the following method.
13 g of water and 2 g of potassium hydroxide were added to a 100 mL heat-resistant medium bottle and mixed together, and 6 g of the product 1, 3-butylene glycol, which was a subject, was further added thereto. Next, the heat-resistant medium bottle was immersed in a water bath, and a heat treatment was performed at 90° C. for one hour. After the solution that had been subjected to the heat treatment was cooled to room temperature, the color saturation (b*) of the solution was measured with a spectral colorimeter SE2000 manufactured by Nippon Denshoku Industries Co., Ltd. and regarded as a grade.

[2] = test system: cysteine-containing peptide for DPRA; assay: Skin sensitization test (direct peptide reactivity assay, DPRA); conditions: HPLC after 72±2 hours, relative value with result of Comparative Example 1 regarded as 100
Excerpt: The product 1, 3-butylene glycol in the present embodiment causes less skin sensitization. Here, the skin sensitization refers to the occurrence of an allergic reaction after the product 1, 3-butylene glycol comes into contact with the skin. In the evaluation of skin sensitization, it has been normal to use experimental animals, but the direct peptide reactivity assay (DPRA), which is an in Chemico test, was adopted as an alternative test in OECD guideline TG442C in 2015 from the viewpoint of animal welfare, and, in the present embodiment as well, the skin sensitization is evaluated by a test in which DPRA is used. In more detail, the skin sensitization is evaluated according to a method described in examples to be described below.
The product 1, 3-butylene glycols obtained in Examples 1 to 3 and Comparative Example 1 were evaluated for skin sensitization according to the following method.
15 mg of cysteine-containing peptide for DPRA manufactured by Scrum Inc. and 30 mL of a 0.05 M phosphate buffer were mixed together, thereby preparing a 0.05 M phosphate buffer solution containing 0.667 mM of the peptide (hereinafter, peptide solution). After one hour elapsed from the preparation of the peptide solution, 750 μL of the peptide solution and 250 μL of acetonitrile were put into each of three brown sample bottles for HPLC, thereby preparing three reference solutions. After two hours elapsed from the preparation of the reference solutions, 750 μL of the peptide solution, 200 μL of acetonitrile and 50 μL of 1, 3-butylene glycol were put into a separate brown sample bottle for HPLC, thereby preparing a specimen solution (specimen solution 1). Furthermore, after four hours elapsed and six hours elapsed from the preparation of the reference solutions, specimen solutions were prepared by the same operation (specimen solution 2 and specimen solution 3). Each of the three reference solutions and the specimen solutions (specimen solution 1, specimen solution 2 and specimen solution 3) was measured by an HPLC analysis after 72±2 hours elapsed from the preparation of each solution, and the three-time average value of the peak heights of peptide in each of the reference solutions and the specimen solutions was calculated. A peptide reduction percentage was calculated from the calculated three-time average value using the following formula (3) and regarded as an evaluation result.
In the present test, a specimen solution of the product 1, 3-butylene glycol of Comparative Example 1 that served as a reference and a specimen solution of the product 1, 3-butylene glycol of each of Examples 1 to 3 were each tested on the same day from the viewpoint of reproducibility.
Analysis device: Agilent 1260 InfinityII manufactured by Agilent Technologies, Inc. […]

Structure (SMILES): CC(O)CCO (centres unmarked) [Example 2, 1,3-butylene glycol]
- Color saturation (b*) [1]: 3.2
- Relative value of peptide reduction percentage [2]: 43

Structure (SMILES): CC(O)CCO (centres unmarked) [Example 1, 1,3-butylene glycol]
- Color saturation (b*) [1]: 2.8
- Relative value of peptide reduction percentage [2]: 45

Structure (SMILES): CC(O)CCO (centres unmarked) [Comparative Example 1, 1,3-butylene glycol]
- Color saturation (b*) [1]: 19.6
- Relative value of peptide reduction percentage [2]: 100

Structure (SMILES): CC(O)CCO (centres unmarked) [Example 3, 1,3-butylene glycol]
- Color saturation (b*) [1]: 0.7
- Relative value of peptide reduction percentage [2]: 22
